The substances below were run on HEK293 cells overexpressing A53T a-syn (assay: Cytotoxicity screen of lentiviral 7-mer peptide library, Alpha syn A53T cells under MG132). Settings: not given.
Type: cell-based, human
Text: A screening system to discover candidate peptides to perturb endogenous PPIs based on libraries of short linear interaction motifs that mediate a large fraction (˜30%) of human PPIs (10-12) was recently developed. Here, a lentiviral library of 50,549 7-mer peptide motifs (13) on a green fluorescent protein (GFP) scaffold (FIG. 1A) was used. Cells in a pooled format were infected and the amino acid sequence of each peptide served as its own barcode. By using a low multiplicity of infection followed by puromycin selection, each infected cell expressed one unique GFP-peptide. Peptides that reduced a-syn-mediated cytotoxicity or a-syn oligomers in parallel (FIG. 1A), were screened for.
To cause cytotoxicity relevant to PD, proteostatic stress in HEK293 cells was induced by inhibiting the proteasome with MG132 and inducing the overexpression of human a-syn (WT) from idiopathic PD in one screen and the more toxic A53T mutant from familial PD in a second screen. The combination of a-syn overexpression and pharmacological proteasome inhibition led to death of most cells, with only those that expressed a protective peptide surviving. By extracting genomic DNA from the surviving cells and amplifying the peptide coding sequences, the protective peptides (FIG. 1A) were identified.
(§1) PCR primers that included the Illumina adaptor sequences were used to amplify peptide coding sequences recovered from selection and cell sorting. Results were demultiplexed, and peptide counts were tallied. After demultiplexing, only reads with an average quality Phred score of >30 were selected, and frequencies were calculated. Finally, the reads were then normalized to the total number of peptides read for that sample population, and a scalar factor was applied. In parallel, ˜25 individual colonies were Sanger sequenced to compare to the NGS data.
(§2) Lentiviruses were made in a 15 cm dish format by transfecting packaging cells (293T) with a three-plasmid system as previously described. Viral transduction of HEK293T cells, tet-off split luciferase a-syn cells, tet-off parent cells, and SH-SY5Y cells were performed with a multiplicity of infection of 0.3 (MOI=0.3). Infected cells were selected in puromycin-containing medium to eliminate uninfected cells and three aliquots of cells were collected for sampling of the initial (TO) cell population. Cells were treated with MG132 at concentrations of 0 μM, 10 μM, 25 μM or 50 μM. For the cell viability screen, surviving cells were collected and gDNA was extracted for identification of peptide inhibitors of cell toxicity. For the inhibition of a-syn aggregation screen, split YFP-a-syn constructs were transfected following stable expression of the peptides. Cells were sorted based on their GFP fluorescence intensities with a FACSVantage SE cell sorter (BD Bioscience).
Genomic DNA (gDNA) from peptide expressing cells at different time-points was extracted using QIAamp DNA Blood Mini Kit. PCR amplifications of peptides from gDNA in parallel with the lentiviral plasmid library (naïve library) were performed using indexed Illumina PCR primers to incorporate both the Illumina adapter sequences and indexing sequences. Each 50 μl reaction contained 3.2 μg of template, 2×PCR buffer, 2× enhancer solution, 300 μM each dNTP, 900 nM each of Adapter A (5′-[…]-[…]-3′) (SEQ ID NO: 42) and Adapter B (5′-[…]-[…]-3′) (SEQ ID NO: 43), 1 mM MgSO4, 3.75 units of Platinum Pfx polymerase, and water to 50 μl. The PCR reaction was performed by denaturing at 94° C. for 5 minutes, followed by cycling (94° C. for 30 seconds, 65° C. for 30 seconds, 68° C. for 30 seconds)×28 cycles, 68° C. for 5 minutes, then cooling to 4° C. The resulting 244 bp product was purified by electrophoresis in 2% agarose followed by gel extraction. Peptide libraries were quantified using Quant-It assay (Invitrogen) and pooled. […]

First: QAELSNS [7-mer library hit, A53T screen]
Second: QSVLQQV [7-mer library hit, A53T screen]
The “Slope Norm Reads” value of the first is lower: 0.69 for the first, 0.82 for the second.

Compared with “QVSVAQQ [7-mer library hit, A53T screen]”, “GWTTVRR [7-mer library hit, A53T screen]” is higher in “Slope Norm Reads” value: 0.69 for the first, 0.94 for the second.

Going from “QSPSSAW [7-mer library hit, A53T screen]” to “CKYRSVL [7-mer library hit, A53T screen]”, the “Slope Norm Reads” value rises from 0.82 to 1.30.

With “QSVVTAP [7-mer library hit, A53T screen]” the “Slope Norm Reads” value was 1.38.

Same assay, conditions: normalized Illumina peptide counts, 0 uM MG132

Compared with “QAELSNS [7-mer library hit, A53T screen]”, “QSVLQQV [7-mer library hit, A53T screen]” is higher in “Reads 0 uM MG132” value: 6 for the first, 13 for the second.

Going from “QVSVAQQ [7-mer library hit, A53T screen]” to “GWTTVRR [7-mer library hit, A53T screen]”, the “Reads 0 uM MG132” value falls from 45 to 15.

First: QSPSSAW [7-mer library hit, A53T screen]
Second: CKYRSVL [7-mer library hit, A53T screen]
The “Reads 0 uM MG132” value of the first is higher: 9 for the first, 5 for the second.

“QSVVTAP [7-mer library hit, A53T screen]” was tested, and the “Reads 0 uM MG132” value was 8.

Same assay, conditions: normalized Illumina peptide counts, 10 µM MG132

First: QAELSNS [7-mer library hit, A53T screen]
Second: QSVLQQV [7-mer library hit, A53T screen]
The “Reads 10 UM MG132” value of the first is higher: 8 for the first, 2 for the second.

First: QVSVAQQ [7-mer library hit, A53T screen]
Second: GWTTVRR [7-mer library hit, A53T screen]
The “Reads 10 UM MG132” value of the first is higher: 13 for the first, 1 for the second.

Going from “QSPSSAW [7-mer library hit, A53T screen]” to “CKYRSVL [7-mer library hit, A53T screen]”, the “Reads 10 UM MG132” value falls from 45 to 7.

“QSVVTAP [7-mer library hit, A53T screen]” was tested, and the “Reads 10 UM MG132” value was 6.

Same assay, conditions: normalized Illumina peptide counts, 25 µM MG132

Compared with “QAELSNS [7-mer library hit, A53T screen]”, “QSVLQQV [7-mer library hit, A53T screen]” is higher in “Reads 25 UM MG132” value: 10 for the first, 12 for the second.

Compared with “QVSVAQQ [7-mer library hit, A53T screen]”, “GWTTVRR [7-mer library hit, A53T screen]” is lower in “Reads 25 UM MG132” value: 120 for the first, 29 for the second.

Compared with “QSPSSAW [7-mer library hit, A53T screen]”, “CKYRSVL [7-mer library hit, A53T screen]” is lower in “Reads 25 UM MG132” value: 59 for the first, 11 for the second.

For “QSVVTAP [7-mer library hit, A53T screen]”, the “Reads 25 UM MG132” value was 37.

Same assay, conditions: normalized Illumina peptide counts, 50 µM MG132

First: QAELSNS [7-mer library hit, A53T screen]
Second: QSVLQQV [7-mer library hit, A53T screen]
The “Reads 50 UM MG132” value of the first is lower: 235 for the first, 282 for the second.

Compared with “QVSVAQQ [7-mer library hit, A53T screen]”, “GWTTVRR [7-mer library hit, A53T screen]” is higher in “Reads 50 UM MG132” value: 246 for the first, 322 for the second.

Going from “QSPSSAW [7-mer library hit, A53T screen]” to “CKYRSVL [7-mer library hit, A53T screen]”, the “Reads 50 UM MG132” value rises from 284 to 438.

With “QSVVTAP [7-mer library hit, A53T screen]” the “Reads 50 UM MG132” value was 465.

These substances were tested on a-syn oligomers in HEK293 cells (assay: Oligomers screen (split YFP-a-syn protein fragment complementation, FACS)). Settings: not given.
Type: cell-based, human
Text: To detect a-syn oligomers, a protein fragment complementation assay (PCA) of a-syn oligomerization in HEK293 cells (14) was used. In this assay, human A53T a-syn was fused to either the C- or N-terminal half of yellow fluorescent protein (YFP). No fluorescence is detectable while a-syn exists in monomers but, when a-syn oligomerizes, the two halves of YFP come in close enough proximity to form a functional, spontaneously fluorescent protein. […] By using fluorescence activated cell sorting (FACS), cells expressing Flag-tagged peptides that directly or indirectly interfered with a-syn oligomer formation were isolated and then the peptides were identified from genomic DNA (FIG. 1A). The screens yielded 10 hits (Table 1). The hit with the most reads (i.e., the most abundant) was the same peptide in all screens: IPIQLKA (SEQ ID NO: 1) (PDpep1) (Table 2). […] Lead peptide targets CHMP2B, a member of ESCRT-III
as §1, §2
Cells were harvested by trypsin treatment and centrifuged at 500×g for 5 minutes. The pellet was resuspended in ice-cold PBS and centrifuged again. The pellet was then resuspended at a concentration of 4×10^6 cells/ml in the sorting buffer, which is PBS containing 100 Kunitz Dnase l/ml, 10 μg/ml propidium iodide (Sigma) and 2% FBS. The sorting solution was also supplemented with either 10 μM forskolin, 100 μM 5,6-Dichlorobenzimidazole riboside (DRB, Sigma), 10 μM forskolin (Sigma) and 100 μM DRB or DMSO, as a control. The cells were then sent through a 40 μm filter to remove large clumps and loaded into either a FACScan Flow Cytometer (BD Bioscience) for cell analysis or a FACSVantage SE cell sorter (BD Bioscience) for cell sorting. The cells with positive propidium iodide staining (i.e., dead cells) were first eliminated from the analysis or sorting pool. For cell sorting, the desired population, either the most or least bright EGFP-positive cells, according to the purpose of the experiments (see Results), was sorted into either 15 ml conical tubes or 96-well plates, which both contained complete DMEM culture media.
Genomic DNA (gDNA) from peptide expressing cells at different time-points was extracted using QIAamp DNA Blood Mini Kit. PCR amplifications of peptides from gDNA in parallel with the lentiviral plasmid library (naïve library) were performed using indexed Illumina PCR primers to incorporate both the Illumina adapter sequences and indexing sequences. […]

Compared with “WPRYPHI [7-mer library hit, oligomers screen]”, “MQMKLSQ [7-mer library hit, oligomers screen]” is lower in “Reads Ratio” value: 47.36 for the first, 36.15 for the second.

Compared with “LKRDQPV [7-mer library hit, oligomers screen]”, “TQKRELT [7-mer library hit, oligomers screen]” is higher in “Reads Ratio” value: 30.30 for the first, 35.64 for the second.

“NNQYSFV [7-mer library hit, oligomers screen]” was tested, and the “Reads Ratio” value was 30.04.

Same assay, conditions: FACS fraction GFP High

“WPRYPHI [7-mer library hit, oligomers screen]” and “MQMKLSQ [7-mer library hit, oligomers screen]” are the same in “Reads GFP High” value: 1 for the first, 1 for the second.

Going from “LKRDQPV [7-mer library hit, oligomers screen]” to “TQKRELT [7-mer library hit, oligomers screen]”, the “Reads GFP High” value falls from 3 to 1.

In the case of “NNQYSFV [7-mer library hit, oligomers screen]”, the “Reads GFP High” value is reported as 1.

Same assay, conditions: FACS fraction GFP Inter

“WPRYPHI [7-mer library hit, oligomers screen]” and “MQMKLSQ [7-mer library hit, oligomers screen]” are the same in “Reads GFP Inter” value: 0 for the first, 0 for the second.

“LKRDQPV [7-mer library hit, oligomers screen]” and “TQKRELT [7-mer library hit, oligomers screen]” are the same in “Reads GFP Inter” value: 0 for the first, 0 for the second.

For “NNQYSFV [7-mer library hit, oligomers screen]”, the “Reads GFP Inter” value was 0.

Same assay, conditions: FACS fraction GFP Neg

Compared with “WPRYPHI [7-mer library hit, oligomers screen]”, “MQMKLSQ [7-mer library hit, oligomers screen]” is lower in “Reads GFP Neg” value: 92 for the first, 70 for the second.

First: LKRDQPV [7-mer library hit, oligomers screen]
Second: TQKRELT [7-mer library hit, oligomers screen]
The “Reads GFP Neg” value of the first is higher: 118 for the first, 69 for the second.

For “NNQYSFV [7-mer library hit, oligomers screen]”, the “Reads GFP Neg” value was 58.
